Earlier results, collected in patent US20240024253A1, “Continuous Drug Delivery Systems and Methods” (Pike Therapeutics Inc., priority 2022, published 2024).

Experiments:
[1] = target: CB2 cannabinoid receptor (Homo sapiens, UniProt P34972); settings: CB2 versus CB1
[2] = target: CB1 cannabinoid receptor; settings: parameter not named at the place

Chain of CB2 cannabinoid receptor (P34972 whole entry): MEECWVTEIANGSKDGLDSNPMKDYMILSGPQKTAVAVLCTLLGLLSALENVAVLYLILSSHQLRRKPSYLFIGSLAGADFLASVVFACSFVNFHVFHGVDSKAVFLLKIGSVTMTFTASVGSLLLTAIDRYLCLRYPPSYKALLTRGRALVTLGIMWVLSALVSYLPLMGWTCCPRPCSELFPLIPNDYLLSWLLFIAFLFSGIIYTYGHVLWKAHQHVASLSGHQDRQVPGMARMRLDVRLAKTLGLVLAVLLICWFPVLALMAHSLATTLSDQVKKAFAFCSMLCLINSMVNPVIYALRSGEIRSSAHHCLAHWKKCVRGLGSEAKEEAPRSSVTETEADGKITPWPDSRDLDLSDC

## CCCn1c(C)c(C(=O)c2ccc(C)c3ccccc23)c2ccccc21 [JWH-148]
[1]
  selectivity for CB2 over the CB1 subtype: more than 8 times

## CCCCCCC(C)(C)c1cc(OC)c2c(c1)OC(C)(C)C1CCC(O)CC21 (stereo not drawn) [JWH-350, 11-nor-1-methoxy-3-(1′,1′-dimethylheptyl)-9α-hydroxyhexahydrocannabinol]
[1]
  selectivity for CB2 receptor: 33 fold

## CCCn1cc(C(=O)c2ccc(C)c3ccccc23)c2ccccc21 [JWH-120]
[1]
  selectivity for CB2 receptor: 173 fold

## CCCCCCC(C)(C)c1cc(O)c2c(c1)oc(=O)c1ccc(OC)cc12 [AM-1710]
[1]
  selectivity / binding strength CB2 over CB1: 54 ×

## CCCCCn1cc(Cc2cccc3ccccc23)c2ccccc21 [JWH-175, (1-pentylindol-3-yl)naphthalen-1-ylmethane]
[2]
  Ki: 22 nM
